# Earlier results, collected in patent publication US7288243B2, “Aerosol drug inhibition of lung metastases” (Research Development Foundation, priority 2002, dated 2007).
# Conditions: concurrent administration of cyclosporin; clinical studies
structure (smiles),measurement,value
CC(=O)O[C@H]1C(=O)[C@@]2(C)[C@H]([C@H](OC(=O)c3ccccc3)[C@]3(O)C[C@H](OC(=O)[C@H](O)[C@@H](NC(=O)c4ccccc4)c4ccccc4)C(C)=C1C3(C)C)[C@]1(OC(C)=O)CO[C@@H]1C[C@@H]2O [paclitaxel],Increase of bioavailability of paclitaxel administered orally,9 fold
